Laboratory results taken from the supplement of paper PMC5908809.

Tests used:
[1] = system: normal NK cells expanded with K562-aAPC; test: drug sensitivity score (DSS) (DSS units); higher = more sensitive; extreme values may be limits of the assay; conditions: 72 h; IL-2 2.5 ng/mL
Experimental: (§1)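 Drug sensitivity and resistance testing on K562-aAPC-expanded normal NK cells: 5 concentrations (10-fold steps over a 10,000-fold range), 72 h at 37 °C, viability by CellTiter-Glo normalised to DMSO and benzethonium chloride controls; DSS from the fitted curve.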

[2] = system: NK-92 (IL-2 2.5 ng/mL); test: as above; conditions: 72 h
[3] = system: normal primary NK cells, pool 1 (3 donors), resting (IL-2 0 ng/mL); test: as above; conditions: 72 h
[4] = system: normal primary NK cells, pool 2 (3 donors) (IL-2 2.5 ng/mL); test: as above; conditions: 72 h
[5] = system: normal primary NK cells, pool 3 (3 donors) (IL-2 2.5 ng/mL); test: as above; conditions: 72 h
[6] = system: NK-YS (IL-2 2.5 ng/mL); test: as above; conditions: 72 h
[7] = system: SNK-6 (IL-2 2.5 ng/mL); test: as above; conditions: 72 h
[8] = system: IMC-1 (IL-2 20 ng/mL); test: as above; conditions: 72 h
[9] = system: KHYG-1 (IL-2 2.5 ng/mL); test: as above; conditions: 72 h
[10] = system: normal primary NK cells, pool 1 (3 donors) (IL-2 2.5 ng/mL); test: as above; conditions: 72 h
[11] = system: NKL (IL-2 2.5 ng/mL); test: as above; conditions: 72 h
[12] = system: DERL-7 (IL-2 2.5 ng/mL); test: as above; conditions: 72 h
[13] = system: YT (IL-2 2.5 ng/mL); test: as above; conditions: 72 h
[14] = system: KAI3 (IL-2 2.5 ng/mL); test: as above; conditions: 72 h
[15] = system: NK-92 (IL-2 2.5 ng/mL); test: percent inhibition of viability; higher = more inhibition; conditions: 72 h
[16] = system: normal primary NK cells, pool 1 (3 donors), resting (IL-2 0 ng/mL); test: as above; conditions: 72 h
[17] = system: normal primary NK cells, pool 2 (3 donors) (IL-2 2.5 ng/mL); test: as above; conditions: 72 h
[18] = system: normal primary NK cells, pool 3 (3 donors) (IL-2 2.5 ng/mL); test: as above; conditions: 72 h
[19] = system: NK-YS (IL-2 2.5 ng/mL); test: as above; conditions: 72 h
[20] = system: SNK-6 (IL-2 2.5 ng/mL); test: as above; conditions: 72 h
[21] = system: IMC-1 (IL-2 20 ng/mL); test: as above; conditions: 72 h
[22] = system: KHYG-1 (IL-2 2.5 ng/mL); test: as above; conditions: 72 h
[23] = system: normal primary NK cells, pool 1 (3 donors) (IL-2 2.5 ng/mL); test: as above; conditions: 72 h
[24] = system: NKL (IL-2 2.5 ng/mL); test: as above; conditions: 72 h
[25] = system: DERL-7 (IL-2 2.5 ng/mL); test: as above; conditions: 72 h
[26] = system: YT (IL-2 2.5 ng/mL); test: as above; conditions: 72 h
[27] = system: KAI3 (IL-2 2.5 ng/mL); test: as above; conditions: 72 h
[28] = system: normal NK cells expanded with K562-aAPC; test: as above; conditions: 72 h, IL-2 2.5 ng/mL
Experimental: as §1

CCN(CC)C(=S)SSC(=S)N(CC)CC [Disulfiram] (max concentration tested 100000 nM)
Conditions	drug sensitivity score
[1]	29.9
[2]	5.78
[3]	30.6
[4]	32.3
[5]	30.4
[6]	21.3
[7]	4.39
[8]	20
[9]	18.2
[10]	30.3
[11]	31.1
[12]	32.9
[13]	6.46
[14]	8.84

percent inhibition of viability [%]
Conditions	10 nM	100 nM	1000 nM	10000 nM	100000 nM
[15]	-0.19	-7.5	39.9	1.99	98.8
[16]	-2.82	3.62	97.2	97.5	101
[17]	-8.13	11.6	98.6	98.2	101
[18]	-15.5	1.36	98.2	99.1	101
[19]	1.28	2.15	66.6	59.1	94.4
[20]	0.42	-19.7	11.4	-24.5	100
[21]	-0.36	2.91	74.2	44.6	101
[22]	1.86	2.15	64.2	44.3	101
[23]	3.67	-0.96	99.8	99.5	101
[24]	2.6	19.2	89.2	93.1	103
[25]	4.4	22.1	97.2	58.3	100
[26]	3.15	1.21	7.05	7.11	96.6
[27]	0.03	-5.96	23.3	29.1	99.8
[28]	-4.71	1.75	94.6	74	100
